{"source": "patent US20220033448A1", "about": "“METHODS FOR AGGREGATION OF PROTEINS” (priority 2011, published 2022)", "key": {"[1]": {"system": "human erythrocytes", "format": "cell-based", "excerpt": "The detergent Tween was used as a positive control, causing 100% lysis of RBCs."}, "[2]": {"system": "E. coli", "details": "E. coli ATCC25922; planktonic bacteria; read-out after 18 hours of growth"}, "[3]": {"system": "S. capitis", "assay": "MIC, microbroth dilution", "details": "planktonic, 18 hours"}, "[4]": {"system": "Corynebacterium"}, "[5]": {"system": "S. aureus"}, "[6]": {"system": "S. hominis", "details": "S. hominis; planktonic; 18 hours"}, "[7]": {"system": "Human embryonic kidney (HEK293T) cells", "details": "50 μg/ml (C30: 50 μg/ml or beyond)"}, "[8]": {"system": "S. aureus MRSA 326", "assay": "Neutropenic-mouse thigh model", "details": "neutropenic mice; bolus i.v. dose of 15 mg/kg 2 h after inoculation; sacrificed 4 hours post-infection"}, "[9]": {"system": "E. faecalis", "details": "E. faecalis ATCC 19433; planktonic; 18 hours"}, "[10]": {"system": "Candida albicans SC5314", "assay": "Adherence of C. albicans SC5314 to epithelial cell line TR-146", "format": "cell-based", "details": "adhesion 1 h", "method": "As discussed herein before, C. albicans Als3 also plays a role in adherence and invasion to epithelial and endothelial cells. […] Here we investigated the effect of external application of interferor peptide F9 on C. albicans SC5314 adherence and invasion to epithelial cells. Thereto, Candida cells were incubated together with the human cells (epithelial cell line TR-146) in the presence of peptide F9 during adhesion (1 h) or invasion (3 h). The amount of adhered and internalized cells was determined by counting using epifluorescence.\nC. albicans strains were grown in liquid YPD, succinate, pH 6.5 or YNB (4% D-glucose) at 30° C. in a shaking incubator overnight. Candida cells were washed three times with 1× PBS and determined to a final concentration 1×10^5 cells/ml in DMEM containing NaHCO3, D-glucose, Na-pyruvate and stable glutamine without FCS. The TR-146 were grown on 12 mm glass slides and inoculated with Candida cells. Different concentrations of positive peptide F9 (50 μM, 10 μM and 2.5 μM) and negative peptides F9_negat, 13 and 20 (50 μM) were tested on Candida adhesion to epithelial cells. Adhesion assay was allowed for 1 h at 37° C., 5% CO2. After adhesion, the cells were washed three times with 1× PBS to remove non-adherent cells and then fixed with 4% paraformaldehyde for 30 min at room temperature.\nAfter extensive rinsing with 1× PBS, the cells were permeabilized in 0.5% Triton X-100 in water for 5 min, and subsequently stained with calcofluor white (dilution 1:100) for 15 min and further washed with water, three times for 10 min, at 30° C., 180 rpm. Coverslips were mounted inverted on a microscope slide and quantified under epifluorescence using a filter set to detect calcofluor white (filter for DAPI) (Leica DFC350 FX, Mannheim, Germany). The percentage of adhered cells was calculated as an average of attached Candida cells on one hundred areas spread over the entire surface of the coverslip."}, "[11]": {"system": "Candida albicans SC5314", "assay": "C. albicans SC5314 adhesion on 96-well polystyrene plates (XTT reduction assay)", "format": "cell-based", "details": "90 min adhesion at 37° C.", "method": "In a next step, lower concentrations of peptide F9 (50 μM, 10 μM and 2.5 μM) were also tested. First, we elucidated the effect of peptide F9 during the period of adhesion (90 min at 37° C.). Then, we tested its effect on further biofilm development, by changing the medium with fresh RPMI1640-MOPS, in the absence of peptide for 48 h. Both assays were performed in 96-well polystyrene plates and quantified by the XTT reduction assay (see material and methods section).\nIn vitro C. albicans biofilm was studied on three different types of biomaterials, namely flat bottom 96-well polystyrene plate (Greiner Bio-One, Germany), silicone (CS Hyde, USA) and polyurethane triple lumen intravenous catheters (2.4mm diameter) (Arrow International Reading, USA). […] After that, the biofilms were washed twice with 1×PBS and quantified.\nThe metabolic activity of Candida cells within in vitro biofilms was studied using the XTT reduction assay. This method is based on colorimetric change of a specific substrate—XTT (2,3-bis(2-methoxy-4-nitro-5-sulpho-phenyl)-2H-tetrazolium-5-carboxanilide) (Sigma, USA) which is reduced to XTT formazan by mitochondrial dehydrogenases of metabolic active cells measured by spectrophotometer at 490 nm. […] The intensity of colorimetric change was measured by spectrophotometer (Spectra max Plus 384) at 490 nm. […]"}}, "note": "Where two headings read alike, the source gives them in different places. No end group written: not given here.", "data": [{"sequence": "RILLGLIRRGSRILLGLIRR [C30]", "values": [{"measurement": "HD50 (concentration at which 50% of red blood cells are lysed)", "setting": "[1]", "result": "25 to 50", "unit": "µg/mL"}, {"measurement": "MIC", "setting": "[2]", "result": "E. coli ATCC25922: 100 μg/ml"}, {"measurement": "MIC", "setting": "[3]", "result": "S. capitis: 1.5 μg/ml"}, {"measurement": "activity against the genus Corynebacterium", "setting": "[4]", "result": "active against the genus Corynebacterium"}, {"measurement": "MIC", "setting": "[5]", "result": 6, "unit": "µg/mL"}, {"measurement": "MIC in presence of 50% FBS", "setting": "[5]", "result": 50, "unit": "µg/mL"}, {"measurement": "MIC", "setting": "[5]; MRSA 115, planktonic, 18 hours", "result": "MRSA 115: 6 μg/ml"}, {"measurement": "MIC", "setting": "[5]; MRSA 165, planktonic, 18 hours", "result": "MRSA 165: 3 μg/ml"}, {"measurement": "MIC", "setting": "[5]; MRSA 204, planktonic, 18 hours", "result": "MRSA 204: 6 μg/ml"}, {"measurement": "MIC", "setting": "[5]; MRSA 274, planktonic, 18 hours", "result": "MRSA 274: 3 μg/ml"}, {"measurement": "MIC", "setting": "[5]; MRSA 351, planktonic, 18 hours", "result": "MRSA 351: 3 μg/ml"}, {"measurement": "MIC", "setting": "[5]; MRSA 418, planktonic, 18 hours", "result": "MRSA 418: 6 μg/ml"}, {"measurement": "MIC", "setting": "[5]; MRSA 651, planktonic, 18 hours", "result": "MRSA 651: 3 μg/ml"}, {"measurement": "MIC", "setting": "[5]; S. aureus ATCC29213, planktonic, 18 hours", "result": "S. aureus ATCC29213: 3 μg/ml"}, {"measurement": "MIC", "setting": "[6]", "result": "S. hominis: 3 μg/ml"}, {"measurement": "LDH release", "setting": "[7]", "result": "higher than 50%"}, {"measurement": "reduction of expansion of initial inoculum", "setting": "[8]", "result": 6.9, "unit": "Log10 CFU/ml"}, {"measurement": "MIC", "setting": "[9]", "result": "E. faecalis ATCC 19433: 6 μg/ml"}]}, {"sequence": "RKLLFNLGSRNGIVIVATTR [F9]", "values": [{"measurement": "decrease of Candida adhesion to epithelial cells compared to the control", "setting": "[10]; 2.5 μM", "result": "~15", "unit": "%"}, {"measurement": "decrease of Candida adhesion to epithelial cells compared to the control", "setting": "[10]; 10 μM", "result": "approximately 20%"}, {"measurement": "decrease of Candida adhesion to epithelial cells compared to the control", "setting": "[10]; 50 μM", "result": 40, "unit": "%"}, {"measurement": "adhesion of C. albicans SC5314 on polystyrene", "setting": "[11]; 2.5 μM peptide", "result": "dramatically decreased adhesion properties of Candida cells"}, {"measurement": "adhesion of C. albicans SC5314 on polystyrene", "setting": "[11]; 50 μM and 10 μM peptide", "result": "almost completely abolished Candida attachment"}]}]}
